“Also recorded” adds a separate entry of the source.
Experiments:
cancer cells = assay: MTT cell viability assay; format: cell-based
Protocol: FIG. 8 is a bar graph showing cell viability (0%-150%) for cell groups treated with each of DMSO (control), OSI-027, DEACM, and cOSI-027, each at 50 μM, respectively, each with (+) or without (−) exposure to light. Light irradiation was done with a 420 nm LED (70 mW/cm^2, 3 min).
To investigate the anti-cancer effect of this photo-activatable prodrug system, MTT assay was further conducted to analyze the cell viability after the treatment with different formulations.

[1] = system: mCherry-GFP-LC3 transfected HeLa cell line; assay: CLSM of LC3 puncta in mCherry-GFP-LC3 cells; format: cell-based
Excerpt: FIGS. 7A-7B are photomicrographs showing the presence of mCherry and/or GFP following exposure to different formulations and respective quantitative analysis. FIG. 7A is a panel of photomicrographs showing the presence of mCherry and/or GFP in cells treated with each of DMSO, OSI-027, DEACM, and cOSI-027, each with light irradiation or no light, respectively. FIG. 7B is a graph showing number of LC3 puncta per cell (0-300) for each of the groups in FIG. 7A. Light irradiation was done with a 420 nm LED (70 mW/cm^2, 3 min).
To further validate the photoactivated effect on autophagy, a mCherry-GFP-LC3 transfected HeLa cell line was established to accurately monitor the LC3 expression and subcellular localization.

mTORC1 signaling pathway = assay: Western blot of mTORC1 signaling (S6K phosphorylation); format: cell-based; settings: compared with the control group, with or without light (420 nm, 70 mW/cm^2, 3 min)
Protocol: (§1) FIG. 5 is a photomicrograph showing bands corresponding to each of p-S6K, S6K, p-Akt, Akt, mTOR, and GAPDH, respectively, from cells treated with each of DMSO (control), OSI-027, DEACM, and cOSI-027, respectively, each with (+) or without (−) exposure to light (420 nm, 70 mW/cm^2, 3 min).
(§2) To further investigate the mTOR inhibitory effect of OSI-027 and cOSI-027 with or without light irradiation, western blot was performed to analyze the protein expression level of mTOR pathway (FIG. 5). S6K and Akt phosphorylation ratios were chosen as markers for mTORC1 and mTORC2 signaling pathway investigation, respectively.

[2] = Photocleavage of cOSI-027 by HPLC, 420 nm light; format: physicochemical; settings: 70 mW/cm^2
Protocol: FIGS. 4A and 4B show the photocleavage of cOSI-027 by HPLC and quantitative analysis. FIG. 4A is a line graph showing the photocleavage of cOSI-027 by HPLC analysis, with 0-1000 mA.U. at the wavelength (342 nm) for cOSI-027 and for OSI-027 when exposed to 420 nm light at 70 mW/cm^2 for 0, 1, 3, 5, 7, 10, or 15 min, respectively. FIG. 4B is a graph showing remaining cOSI-027 (0-400 μM) and released OSI-027 (0-300 μM) over light irradiation time (0, 1, 3, 5, 7, 10, or 15 min, respectively).
The optochemcial characteristics of the caged OSI-027 prodrug were analyzed by spectroscopy (FIGS. 3A-3C). The absorption peaks of the prodrug were located at 300 nm and 380 nm. The emission peak was located at 460 nm under 380 nm excitation. […] To further verify the photocleavage reaction after light irradiation, high performance liquid chromatography (HPLC) was utilized to monitor the cleavage and release of OSI-027 after light irradiation.

mTORC2 signaling pathway = assay: Western blot of mTORC2 signaling (Akt phosphorylation); format: cell-based; settings: compared with the control group, with or without light (420 nm, 70 mW/cm^2, 3 min)
Protocol: as §1, §2

autophagy activity = assay: Western blot of autophagy level (LC3-II/LC3-I ratio); format: cell-based
Excerpt: FIGS. 6A-6B show results of Western blotting and quantification of autophagy. FIG. 6A is a photomicrograph showing bands corresponding to each of LC3-I, LC3-II, and GADPH in cells treated with each of DMSO (control), OSI-027, DEACM, and cOSI-027, respectively, each with (+) or without (−) exposure to light. FIG. 6B is a graph showing normalized LC3-II/LC3-I ratio (0-15) for each of the bands in FIG. 6A including DMSO, OSI-027, DEACM, and cOSI-027, each with or without exposure to light, respectively. Light irradiation was done with a 420 nm LED (70 mW/cm^2, 3 min).
mTORC1 inhibition leads to higher autophagy activity, resulting in enhanced protein degradation ability in the lysosome. Therefore, whether the photochemical-controlled mTOR inhibition strategy can be used for manipulating autophagy activity was investigated. Autophagy level was characterized by the LC3-II/LC3-I ratio through western blot analysis (FIGS. 6A-6B). 24 h after the drug treatment, OSI-027 increased the LC3-II/LC-I ratio compared with the control group, indicating a higher autophagy activity. And cOSI-027 treatment led to a higher LC3-II/LC3-I ratio after light irradiation, compared with non-irradiation group.

[3] = cited from earlier work

SMILES	cell viability (cancer cells; 50 μM, after light irradiation (420 nm LED, 70 mW/cm^2, 3 min))	puncta number ([1]; after light irradiation (420 nm LED, 70 mW/cm^2, 3 min))	phosphorylation of S6K (marker for mTORC1 signaling) (mTORC1 signaling pathway)	release of OSI-027 (HPLC) ([2]; after 1 min of 420 nm light irradiation)	photocleavage (HPLC) ([2]; after 3 min irradiation, 420 nm)	phosphorylation of Akt (marker for mTORC2 signaling) (mTORC2 signaling pathway)	LC3-II/LC3-I ratio (autophagy activity; after light irradiation (420 nm LED, 70 mW/cm^2, 3 min), compared with non-irradiation group)	viability at 50 µM (cancer cells; after 48 h incubation)	number and area of red and yellow puncta in the cells ([1]; compared with the control group)	patients with stable disease ([3]; 8-12-week follow-up assessment)	patients free of progression for more than 24 weeks ([3]; of the patients with stable disease)	toxicity and adverse effects ([3]; phase I clinical trial observations)	LC3-II/LC3-I ratio (autophagy activity; 24 h after the drug treatment, compared with the control group)
CCN(CC)c1ccc2c(COC(=O)C3CCC(c4nc(-c5cc6cccc(OC)c6[nH]5)c5c(N)ncnn45)CC3)cc(=O)oc2c1 (stereo not drawn) [cOSI-027]	significantly lower	increased	only exhibited significant inhibitory effect on mTORC1 and mTORC2 pathway after light irradiation	generation of OSI-027 was characterized by the new peak	almost completed	only exhibited significant inhibitory effect on mTORC1 and mTORC2 pathway after light irradiation	higher						
COc1cccc2cc(-c3nc([C@H]4CC[C@H](C(=O)O)CC4)n4ncnc(N)c34)[nH]c12 [OSI-027, Trans-4-[4-amino-5-(7-methoxy-1H-indol-2-yl)imidazo[5,1-f][1,2,4]triazin-7-yl]-cyclohexanecarboxylic acid]			decreased			decreased		~30%	significantly increase	29.7 % patients	six	induced dose-limiting toxicities (DLT) and adverse effects; also recorded: induced fatigue, gastrointestinal disorders, decreased cardiac function and cardiomyopathy, bone pain, and hyperglycemia; also recorded: frequently led to renal dysfunction	increased

— patent publication US20230020319A1, “COMPOSITIONS AND METHODS FOR OPTOCHEMICAL CONTROL OF MTOR SIGNALING AND MTOR-DEPENDENT AUTOPHAGY” (The University of Hong Kong, priority 2021, published 2023)
